Test results taken from patent publication US11203598B2, “Compounds for repressing cancer cell growth” (Institute For Cancer Research, priority 2018, dated 2021).

Legend:
Type in all cases: cell-based, human
[1] = test system: SW480 cells; experiment: CellTiter-Glo luminescent cell viability assay; details: for cell viability: dose dependent
Method: Cells were seeded in 96-well plates at a density of 5×10^3 cells per well. 20 μL of CellTiter-Glo® Reagent was added directly to the wells, following the manufacturer's protocol, and bioluminescence signal was determined using an IVIS imaging system.
(§1) Cell lines at a concentration of 4×10^3 cells/well were seeded out on an opaque 96-well plate and treated with CB002 and Analog 11 in ranging doses starting from 200 μmol/L with DMSO controls. At 72 hours after treatment, cells were mixed with 30 μL Cell Titer-Glo reagent and after ten minutes of room temperature incubation were imaged using IVIS imaging system (Xenogen).
To begin establishing the potential of CB002 as a candidate therapeutic agent, its therapeutic index was determined by treating cancer (DLD-1, SW480, and RXF393) and normal (WI38 and MRC5) cell lines with concentrations of CB002 ranging from 0-500 μM for a period of 72 hours and assessing cell viability by the CellTiter-Glo® luminescence assay (see, FIG. 2). CB002 has a significant therapeutic index among the cells tested.

[2] = test system: HCT116 cells; experiment: Cell Titer-Glo cell viability assay; details: 72 hours, dose dependent
Method: as §1

[3] = test system: HCT116 p53-null cells; experiment: Cell Titer-Glo cell viability assay; details: 72 hours, dose dependent
Method: as §1

[4] = test system: SW480 cells; experiment: apoptosis assay, sub-G1 analysis (propidium iodide, flow cytometry); details: for sub-G1 fraction: dose dependent, over untreated controls
Method: Apoptotic cells were quantified by sub-G1 analysis. Cells were seeded at a density of 2.5×10^5 to 5×10^5 in a 6-well plate and treated for 48-72 hours. After treatment, adherent cells were trypsinized and collected along with floating cells, washed with PBS and fixed in 70% ethanol. Cells were then incubated in a Phosphate-citric acid buffer (0.2 M Na2HPO4+0.1 M Citric Acid, pH 7.8) at room temperature for 5 minutes, spun down and resuspended for staining with 50 μg/mL propidium iodide (PI) in the presence of 250 μg/mL pancreatic ribonuclease (RNase A). Sub-G1 analyses were performed using an Epics Elite Epics flow cytometer (Coulter-Beckman).
Cells were seeded out at 1×10^6 cells/well on six well plates and treated with CB002 and Analog 11 at ranging doses with DMSO controls. Cells were harvested after 72 hours of treatment, all cells including floating cells were fixed with ethanol and stained with Propidium Iodide and then analyzed using Epics Elite flow cytometer to measure the DNA content of the stained cells.

[5] = test system: p53 pathway proteins in DLD-1 cells; experiment: Western blot of p53 targets and LC3B; details: for DR5 protein level: 8 and 24 hours
Method: After treatment, cells were harvested by trypsinization, washed with PBS, and lysed with RIPA buffer (Sigma-Aldrich) for 30 minutes to 1 hour at 4° C. Protein lysates were spun down and supernatant was collected. Protein quantification was performed using a Pierce™ BCA Protein Assay Kit (Thermo Fisher Scientific). 1×NuPAGE® LDS sample buffer (Thermo Fisher Scientific) and 2-Mercaptoethanol as the reducing agent (Sigma-Aldrich) were added to protein lysates, followed by boiling for 15 minutes at 95° C. Equal total protein amounts samples were loaded into NuPAGE™ Novex™ 4-12% Bis-Tris Protein Gels (1.5 mm, Thermo Fisher Scientific) and gel eletrophoresis was performed with NuPAGE™ MES SDS Running Buffer. Proteins were transferred onto an Immobilon-P membrane (PVDF, EMD Millipore) using a Bio-Rad system with a 10% Tris-Glycine and 10% methanol transfer buffer diluted in distilled and deionized water. After transfer, membranes were blocked with 10% milk in TBST solution and then incubated overnight with primary antibody, washed with TBST and incubated with secondary antibody for 1 hour. Incubations were performed in 5% milk in TBST solution. Signal was detected by using a chemiluminescent detection kit, followed by autoradiography. The following antibodies were used: p53 (DO-1, 1:1000, Santa Cruz), p73 (1:1000, Bethyl Laboratories), p21 and NOXA (1:250, EMD Millipore), DR5, FADD, cleaved caspase 3, cleaved caspase 8, cleaved PARP, and LC3B (1:1000, Cell Signaling), and β-actin (1:10000, Sigma).
Proteins were isolated using NP40 Lysis Buffer (20 mmol/L Tris-HCl (pH 7.4), 150 mmol/L NaCl, 5 mmol/L EDTA, 50 mmol/L NaF, 1 mmol/L glycerophosphate, 5 mmol/L Na4P2O7, 0.5% NP40, and complete protease inhibitor cocktail (Roche)) and electrophoresed through 4-12% SDS-PAGE followed by semi-dry transfer to PVDF membranes. The PVDF membranes were incubated with different antibodies including p21 (OP64-100UG, EMD Millipore (world wide web at emdmillipore.com/US/en/product/Antip21WAF1-(Ab-1)-Mouse-mAb-(EA10), EMD_BIO-OP64)), PUMA (12450S, Cell Signaling Technology, world wide web at cellsignal.com/products/primary-antibodies/puma-d30c10-rabbit-mab/12450), DR5 (3696S, Cell Signaling Technology, world wide web at cellsignal.com/products/primary-antibodies/dr5-antibody/3696?N=4294956287&Ntt=3696s&fromPage=plp& requestid=541668), p53(sc-126, Santa Cruz, world wide web at scbt.com/scbt/fr/product/p53-antibody-do-1), and RAN (610341, BD Transduction Laboratories, world wide web at bdbiosciences.com/us/reagents/research/antibodies-buffers/cell-biologyreagents/cell-biology-antibodies/purified-mouse-anti-ran-20ran/p/610341) in blocking buffer at 4° C. overnight. Bound antibody will be detected using IRDye secondary antibodies (LI-COR Biosciences,) in Odyssey blocking buffer for 1 hour then imaged using the ODYSSEY infrared imaging system.

[6] = 8 hours, 25 μmol/L and 50 μmol/L
[7] = 24 hours, 12 μmol/L of CB002 and 25 μmol/L of Analog 11

| Structure (SMILES) | combination index (CI), CB002 and CPT-11 ([1]; 72 hours) | cell viability ([1]; 72 hours) | combination index (CI), CB002 and 5-FU ([1]; 72 hours, CI<1 indicates synergism) | cell viability, combination with 5-FU ([1]; CB002 (22 μM and 66 μM) with 5-FU (60 μg/ml), 72 hours, versus single agents) | cell viability, combination with CPT-11 ([1]; CB002 (66 μM) and CPT-11 (a series of doses), 72 hours, versus single agents) | IC50 ([1]; Homo sapiens, SW480, 72 hours, GraphPad) [µM] | cell viability [2] | cell viability [3] | sub-G1 content ([4]; 96 μM, 48 hours, parental SW480 (NOXA experiment), DMSO 4.5%) [%] | sub-G1 population ([4]; 96 μM, 48 hours, DMSO control 8.7%) [%] | increase of cells in sub-G1 ([4]; 200 μM, 72 hours) [%] | sub-G1 fraction ([4]; 72 hours) | LC3B protein expression time course ([5]; 160 μM, 0-48 hours) | DR5 protein level [5] | PUMA protein level [5, 6] | p21 protein level [5, 6] | PUMA protein level ([5]; 24 hours) | p21 protein level [5, 7] |
| --- | --- | --- | --- | --- | --- | --- | --- | --- | --- | --- | --- | --- | --- | --- | --- | --- | --- | --- |
| Cn1c(=O)c2[nH]c(Nc3ccccc3)nc2n(C)c1=O [CB002, 8-anilino-1,3-dimethyl-3,7-dihydro-1H-purine-2,6-dione] | synergism | reduced cell viability | < 1.0 | significantly reduced cell viability | significantly reduced cell viability | 96.5 | reduced cell viability | reduced cell viability | 19 | 32.6 | 20 | increased cells in sub-G1 fraction | initial increase of LC3B | slightly increased | minor increase in PUMA | minor increase in p21 | an increase in PUMA | moderate increase in p21 |
| Cn1c(=O)c2c(nc(Nc3ccccc3)n2C)n(C)c1=O [Analog 11, 8-anilino-1,3,7-trimethyl-3,7-dihydro-1Hpurine-2,6-dione] | – | reduced cell viability | – | – | – | – | reduced cell viability | reduced cell viability | – | – | – | increased cells in sub-G1 fraction | – | no change of DR5 | an increase at the 25 μmol/L but not the 50 μmol/L | minor increase in p21 | an increase in PUMA | moderate increase in p21 |
